Data published in ChEMBL document CHEMBL1140493, “Quantitative structure-activity relationship studies for prediction of antimicrobial activity of synthesized 2,4-hexadienoic acid derivatives” (Bioorg Med Chem Lett, 2007).
In brackets after ≈: the same amount, converted by molar mass.

Legend:
Aspergillus niger = experiment: Antifungal activity against Aspergillus niger after 7 days by twofold serial dilution method; type: functional; details: 168 h, read-out: -Log MIC
[1] = Partition coefficient, log P of the compound; details: octanol/water
Bacillus subtilis = experiment: Antimicrobial activity against Bacillus subtilis after 24 hrs by twofold serial dilution method; type: functional; details: read-out: -Log MIC
Staphylococcus aureus = experiment: Antimicrobial activity against Staphylococcus aureus after 24 hrs by twofold serial dilution method; type: functional; details: read-out: -Log MIC
Escherichia coli = experiment: Antimicrobial activity against Escherichia coli after 24 hrs by twofold serial dilution method; type: functional; details: read-out: -Log MIC
Candida albicans = experiment: Antifungal activity against Candida albicans after 2 days by twofold serial dilution method; type: functional; details: 48 h, read-out: -Log MIC

| SMILES | MIC (Aspergillus niger) [µM] | logP [1] | MIC (Bacillus subtilis) [µM] | MIC (Staphylococcus aureus) [µM] | MIC (Escherichia coli) [µM] | MIC (Candida albicans) [µM] |
| --- | --- | --- | --- | --- | --- | --- |
| C/C=C/C=C/C(=O)OCCCCCCC | 58.9 (≈ 12.4 µg/mL) | 3.9 | 50.1 (≈ 10.5 µg/mL) | 58.9 (≈ 12.4 µg/mL) | 79.4 (≈ 16.7 µg/mL) | 58.9 (≈ 12.4 µg/mL) |
| C/C=C/C=C/C(=O)Nc1ccc(Cl)cc1 | 50.1 (≈ 11.1 µg/mL) | 3.05 | 44.7 (≈ 9.91 µg/mL) | 63.1 (≈ 14 µg/mL) | 72.4 (≈ 16.1 µg/mL) | 50.1 (≈ 11.1 µg/mL) |
| C/C=C/C=C/C(=O)N(CCO)CCO | – | 0.21 | 63.1 (≈ 12.6 µg/mL) | 79.4 (≈ 15.8 µg/mL) | 91.2 (≈ 18.2 µg/mL) | 50.1 (≈ 9.98 µg/mL) |
| C/C=C/C=C/C(=O)OCC(C)C | 63.1 (≈ 10.6 µg/mL) | 2.71 | 74.1 (≈ 12.5 µg/mL) | 100 (≈ 16.8 µg/mL) | – | 74.1 (≈ 12.5 µg/mL) |
| C/C=C/C=C/C(=O)Nc1ccccc1Cl | 63.1 (≈ 14 µg/mL) | 3.05 | 56.2 (≈ 12.5 µg/mL) | 70.8 (≈ 15.7 µg/mL) | 81.3 (≈ 18 µg/mL) | 56.2 (≈ 12.5 µg/mL) |
| C/C=C/C=C/C(=O)N(c1ccccc1)c1ccccc1 | 39.8 (≈ 10.5 µg/mL) | 4.46 | 38 (≈ 10 µg/mL) | 50.1 (≈ 13.2 µg/mL) | 58.9 (≈ 15.5 µg/mL) | 47.9 (≈ 12.6 µg/mL) |
| C/C=C/C=C/C(=O)Nc1cccc(Cl)c1 | 39.8 (≈ 8.82 µg/mL) | 3.05 | 50.1 (≈ 11.1 µg/mL) | 63.1 (≈ 14 µg/mL) | 72.4 (≈ 16.1 µg/mL) | 50.1 (≈ 11.1 µg/mL) |
| C/C=C/C=C/C(=O)OC(C)C | 56.2 (≈ 8.67 µg/mL) | 2.26 | 63.1 (≈ 9.73 µg/mL) | 81.3 (≈ 12.5 µg/mL) | – | 63.1 (≈ 9.73 µg/mL) |
| C=CCOC(=O)/C=C/C=C/C | 79.4 (≈ 12.1 µg/mL) | 2.24 | 79.4 (≈ 12.1 µg/mL) | – | – | 81.3 (≈ 12.4 µg/mL) |
| C/C=C/C=C/C(=O)Nc1ccc(OC)cc1 | 44.7 (≈ 9.71 µg/mL) | 2.28 | 45.7 (≈ 9.93 µg/mL) | 64.6 (≈ 14 µg/mL) | 64.6 (≈ 14 µg/mL) | 50.1 (≈ 10.9 µg/mL) |
| C/C=C/C=C/C(=O)N1CCCCC1 | 63.1 (≈ 11.3 µg/mL) | 1.82 | 61.7 (≈ 11.1 µg/mL) | 77.6 (≈ 13.9 µg/mL) | – | 69.2 (≈ 12.4 µg/mL) |
| C/C=C/C=C/C(=O)N1CCOCC1 | 79.4 (≈ 14.4 µg/mL) | 0.75 | 55 (≈ 9.97 µg/mL) | 69.2 (≈ 12.5 µg/mL) | – | 63.1 (≈ 11.4 µg/mL) |
| C/C=C/C=C/C(=O)O [SORBIC ACID] | – | 1.47 | – | – | – | – |
| C/C=C/C=C/C(=O)Oc1cccc2cccnc12 | 38 (≈ 9.09 µg/mL) | 3.27 | 12.9 (≈ 3.09 µg/mL) | 12.9 (≈ 3.09 µg/mL) | 12.9 (≈ 3.09 µg/mL) | 52.5 (≈ 12.6 µg/mL) |
| C/C=C/C=C/C(=O)Nc1cccc(C)c1 | 61.7 (≈ 12.4 µg/mL) | 3 | 47.9 (≈ 9.64 µg/mL) | 61.7 (≈ 12.4 µg/mL) | 79.4 (≈ 16 µg/mL) | 61.7 (≈ 12.4 µg/mL) |
| C/C=C/C=C/C(=O)Nc1ccccc1OC | 63.1 (≈ 13.7 µg/mL) | 2.28 | 57.5 (≈ 12.5 µg/mL) | 63.1 (≈ 13.7 µg/mL) | 79.4 (≈ 17.3 µg/mL) | 50.1 (≈ 10.9 µg/mL) |
| C/C=C/C=C/C(=O)OCCC(C)C | 69.2 (≈ 12.6 µg/mL) | 3.04 | 55 (≈ 10 µg/mL) | 63.1 (≈ 11.5 µg/mL) | 100 (≈ 18.2 µg/mL) | 69.2 (≈ 12.6 µg/mL) |
| C/C=C/C=C/C(=O)OC(C)(C)C | 74.1 (≈ 12.5 µg/mL) | 2.33 | 50.1 (≈ 8.43 µg/mL) | 74.1 (≈ 12.5 µg/mL) | 83.2 (≈ 14 µg/mL) | 53.7 (≈ 9.03 µg/mL) |
| C/C=C/C=C/C(=O)Oc1ccccc1 | 47.9 (≈ 9.02 µg/mL) | 3.18 | 58.9 (≈ 11.1 µg/mL) | 95.5 (≈ 18 µg/mL) | 74.1 (≈ 13.9 µg/mL) | 56.2 (≈ 10.6 µg/mL) |
| C/C=C/C=C/C(=O)OCc1ccccc1 | 70.8 (≈ 14.3 µg/mL) | 3.28 | 69.2 (≈ 14 µg/mL) | 63.1 (≈ 12.8 µg/mL) | 100 (≈ 20.2 µg/mL) | 61.7 (≈ 12.5 µg/mL) |
| C/C=C/C=C/C(=O)Nc1ccc([N+](=O)[O-])cc1 | 53.7 (≈ 12.5 µg/mL) | 2.49 | 38.9 (≈ 9.03 µg/mL) | 60.3 (≈ 14 µg/mL) | 60.3 (≈ 14 µg/mL) | 53.7 (≈ 12.5 µg/mL) |
| C/C=C/C=C/C(=O)Nc1ccccc1N | 69.2 (≈ 14 µg/mL) | 1.75 | 49 (≈ 9.91 µg/mL) | 63.1 (≈ 12.8 µg/mL) | 69.2 (≈ 14 µg/mL) | 61.7 (≈ 12.5 µg/mL) |
| C/C=C/C=C/C(=O)Nc1cccc(O)c1 | 69.2 (≈ 14.1 µg/mL) | 2.25 | 53.7 (≈ 10.9 µg/mL) | 89.1 (≈ 18.1 µg/mL) | 100 (≈ 20.3 µg/mL) | 53.7 (≈ 10.9 µg/mL) |
| C/C=C/C=C/C(=O)Nc1ccc(Br)cc1 | 50.1 (≈ 13.3 µg/mL) | 3.32 | 47.9 (≈ 12.7 µg/mL) | 37.2 (≈ 9.9 µg/mL) | 79.4 (≈ 21.1 µg/mL) | 46.8 (≈ 12.5 µg/mL) |
| C/C=C/C=C/C(=O)Nc1ccc(C)cc1 | 34.7 (≈ 6.98 µg/mL) | 3 | 55 (≈ 11.1 µg/mL) | 61.7 (≈ 12.4 µg/mL) | 100 (≈ 20.1 µg/mL) | 55 (≈ 11.1 µg/mL) |
| C/C=C/C=C/C(=O)Nc1ccccc1 | 74.1 (≈ 13.9 µg/mL) | 2.53 | 66.1 (≈ 12.4 µg/mL) | – | – | 66.1 (≈ 12.4 µg/mL) |
| O=C(O)c1cn(C2CC2)c2cc(N3CCNCC3)c(F)cc2c1=O [CIPROFLOXACIN] | – | – | 0.468 (≈ 0.155 µg/mL) | 0.468 (≈ 0.155 µg/mL) | 0.468 (≈ 0.155 µg/mL) | – |
| C/C=C/C=C/C(=O)Nc1cccc([N+](=O)[O-])c1 | 39.8 (≈ 9.24 µg/mL) | 2.49 | 34.7 (≈ 8.06 µg/mL) | 50.1 (≈ 11.6 µg/mL) | 60.3 (≈ 14 µg/mL) | 47.9 (≈ 11.1 µg/mL) |

The next lines start with the values.

| MIC (Aspergillus niger) [µM] | logP [1] | MIC (Bacillus subtilis) [µM] | MIC (Staphylococcus aureus) [µM] | MIC (Escherichia coli) [µM] | MIC (Candida albicans) [µM] | SMILES |
| --- | --- | --- | --- | --- | --- | --- |
| 81.3 (≈ 12.5 µg/mL) | 2.31 | 70.8 (≈ 10.9 µg/mL) | – | – | 70.8 (≈ 10.9 µg/mL) | C/C=C/C=C/C(=O)OCCC |
| – | 0.59 | 100 (≈ 12.6 µg/mL) | – | – | 100 (≈ 12.6 µg/mL) | C/C=C/C=C/C(=O)NN |
| 63.1 (≈ 12.4 µg/mL) | 3.5 | 63.1 (≈ 12.4 µg/mL) | 100 (≈ 19.6 µg/mL) | – | 51.3 (≈ 10.1 µg/mL) | C/C=C/C=C/C(=O)OCCCCCC |
| 74.1 (≈ 12.5 µg/mL) | 2.71 | 74.1 (≈ 12.5 µg/mL) | 100 (≈ 16.8 µg/mL) | – | 74.1 (≈ 12.5 µg/mL) | C/C=C/C=C/C(=O)OCCCC |
| 69.2 (≈ 12.6 µg/mL) | 3.1 | 63.1 (≈ 11.5 µg/mL) | 79.4 (≈ 14.5 µg/mL) | 100 (≈ 18.2 µg/mL) | 50.1 (≈ 9.13 µg/mL) | C/C=C/C=C/C(=O)OCCCCC |
| 89.1 (≈ 12.4 µg/mL) | 1.19 | 89.1 (≈ 12.4 µg/mL) | – | – | 79.4 (≈ 11.1 µg/mL) | C/C=C/C=C/C(=O)NCC |
| 61.7 (≈ 12.4 µg/mL) | 2.63 | 61.7 (≈ 12.4 µg/mL) | 70.8 (≈ 14.2 µg/mL) | 100 (≈ 20.1 µg/mL) | 61.7 (≈ 12.4 µg/mL) | C/C=C/C=C/C(=O)NCc1ccccc1 |
| 79.4 (≈ 9.94 µg/mL) | 0.85 | 79.4 (≈ 9.94 µg/mL) | 100 (≈ 12.5 µg/mL) | – | 79.4 (≈ 9.94 µg/mL) | C/C=C/C=C/C(=O)NC |
| 79.4 (≈ 11.1 µg/mL) | 1.1 | 72.4 (≈ 10.1 µg/mL) | 79.4 (≈ 11.1 µg/mL) | – | 63.1 (≈ 8.78 µg/mL) | C/C=C/C=C/C(=O)N(C)C |
| – | 0.41 | 91.2 (≈ 14.2 µg/mL) | – | – | 81.3 (≈ 12.6 µg/mL) | C/C=C/C=C/C(=O)NCCO |
| 83.2 (≈ 14 µg/mL) | 2.72 | 74.1 (≈ 12.5 µg/mL) | – | – | 74.1 (≈ 12.5 µg/mL) | C/C=C/C=C/C(=O)OC(C)CC (stereo not given) |
| 100 (≈ 12.6 µg/mL) | 1.5 | 79.4 (≈ 10 µg/mL) | 100 (≈ 12.6 µg/mL) | – | 79.4 (≈ 10 µg/mL) | C/C=C/C=C/C(=O)OC [METHYL SORBATE] |
| 100 (≈ 15.3 µg/mL) | 1.66 | 72.4 (≈ 11.1 µg/mL) | 100 (≈ 15.3 µg/mL) | – | 81.3 (≈ 12.5 µg/mL) | C/C=C/C=C/C(=O)NCCC |
| 100 (≈ 14 µg/mL) | 1.84 | 89.1 (≈ 12.5 µg/mL) | – | – | 77.6 (≈ 10.9 µg/mL) | C/C=C/C=C/C(=O)OCC |
